Test results as given in patent US20240358692A1, “TREATMENT OF SCLERODERMA” (Aisa Pharma, Inc., priority 2023, published 2024).
“Also recorded” adds a separate entry of the source. Read-outs that look alike come from different tables or passages of the source.

Key:
participants with SSc-RP [1] = assay: Average duration of weekly RP attacks (minutes), patient diary; format: in vivo, human
From the text: The absolute change in average duration of weekly RP attacks from baseline to the end of each dosing period was and will be a secondary outcome variable. The sponsor-developed participant-informed diary was and will be used to record data. Average duration of weekly RP attacks is defined as the total duration of RP attacks divided by total number of RP attacks within the last 7 days of each dosing period. Total duration of RP attacks during the last 7 days of screening period divided by the total number of RP attacks will be used as baseline for the analysis of all periods. The variable will be calculated similar to frequency data as before.

participants with SSc-RP [2] = format: in vivo
From the text: Treatment-emergent AEs (TEAEs) are defined as AEs that occur or worsen after the dose of study drug. If the timing of the start of an AE could not be determined unambiguously from the start or end dates provided, it will be assumed to be a TEAE. An AE is considered related if the relationship to either of the study drug has been indicated as possibly or probably or definite related by the investigator. An AE leading to study withdrawal is defined as an AE that cause a subject early terminated from the study. AEs will be identified as emerging in the following parts: • TEAEs for Part A will be those that started during Part A (i.e., from the first dose in Part A to end of follow up of Part A) • TEAEs for Part B will be those that started during Part B (i.e., from the first dose in Part B to end of follow-up of Part B).
In this study, AEs and SAEs were reported for all participants from the time of randomization until the completion of the Follow-up/EOS visit. Adverse events that were ongoing at the EOS visit were marked as Not Recovered/Not resolved on the AE eCRF page (see Section 9.4.4). The Investigator did full AE review during in-clinic visit. All spontaneously volunteered and enquired for, as well as observed AEs, were recorded in the participant's medical records and the eCRF.
Severity of AEs were graded by the Investigator as one of: • Mild (Grade 1): A type of AE that is usually transient and may require only minimal treatment or therapeutic intervention.

[3] = Pooled Cilnidipine 10 mg and Cilnidipine 10 mg + Tadalafil 5 mg, by Baseline RCS, second subgroup of table, ITT Population - Part A
[4] = Pooled Cilnidipine 20 mg and Cilnidipine 20 mg + Tadalafil 5 mg, Excluding Outliers, ITT Population - Part A
[5] = Pooled Cilnidipine 20 mg and Cilnidipine 20 mg + Tadalafil 5 mg, Excluding Outliers, by Baseline RCS, second RCS subgroup of table (not named), ITT Population - Part A
[6] = Pooled Cilnidipine 20 mg and Cilnidipine 20 mg + Tadalafil 5 mg, by Baseline RCS, first subgroup of table, ITT Population - Part A
[7] = Pooled Cilnidipine 20 mg and Cilnidipine 20 mg + Tadalafil 5 mg, by Baseline RCS, second RCS subgroup of table (not named), ITT Population - Part A
[8] = Pooled Cilnidipine 20 mg and Cilnidipine 20 mg + Tadalafil 5 mg, by Baseline RCS, second subgroup of table, ITT Population - Part A
[9] = Pooled Cilnidipine 20 mg and Cilnidipine 20 mg + Tadalafil 5 mg, last 7 days of dosing period, ITT Part A
[10] = Pooled Cilnidipine, Excluding Outliers, ITT Population - Part A
[11] = Pooled Cilnidipine, Excluding Outliers, by Baseline RCS, first RCS subgroup of table (not named), ITT Population - Part A
[12] = Pooled Cilnidipine, ITT Population - Part A
[13] = Pooled Cilnidipine, ITT Population - Part A, last 7 days of dosing period
[14] = Pooled Cilnidipine, by Baseline RCS, first RCS subgroup of table (not named), ITT Population - Part A
[15] = Pooled Cilnidipine, by Baseline RCS, first subgroup of table, ITT Population - Part A
[16] = Pooled Cilnidipine, excluding outliers, 1st baseline RCS subgroup, ITT Part A

COCCOC(=O)C1=C(C)NC(C)=C(C(=O)OC/C=C/c2ccccc2)C1c1cccc([N+](=O)[O-])c1 (centres unmarked) [Cilnidipine]
Average Duration of Weekly RP Attacks (All Attacks), Mean (participants with SSc-RP [1]; [3]): 34.17 min | Average Duration of Weekly RP Attacks (All Attacks), Median (participants with SSc-RP [1]; [3]): 34.17 min | Average Duration of Weekly RP Attacks (All Attacks), Percent Change from Baseline, Mean (participants with SSc-RP [1]; [3]): −37.36% | Average Duration of Weekly RP Attacks (All Attacks), Percent Change from Baseline, Median (participants with SSc-RP [1]; [3]): −37.36% | Average Duration of weekly symptomatic RP attacks, Mean (participants with SSc-RP [1]; Pooled Cilnidipine 10 mg and Cilnidipine 10 mg + Tadalafil 5 mg, last 7 days of dosing period, ITT Part A): 29.46 min | Change from Baseline in average duration of weekly symptomatic RP attacks, Mean (participants with SSc-RP [1]; [4]): -7.51 min | Change from Baseline in average duration of weekly symptomatic RP attacks, Median (participants with SSc-RP [1]; [4]): -3.55 min | Percent Change from Baseline in average duration of weekly symptomatic RP attacks, Mean (participants with SSc-RP [1]; [4]): −16.40% | Percent Change from Baseline in average duration of weekly symptomatic RP attacks, Median (participants with SSc-RP [1]; [4]): −7.30% | Change from Baseline in average duration of weekly symptomatic RP attacks, Mean (participants with SSc-RP [1]; [5]): -27.00 min | Change from Baseline in average duration of weekly symptomatic RP attacks, Median (participants with SSc-RP [1]; [5]): -27.00 min | Percent Change from Baseline in average duration of weekly symptomatic RP attacks, Mean (participants with SSc-RP [1]; [5]): −30.00% | Percent Change from Baseline in average duration of weekly symptomatic RP attacks, Median (participants with SSc-RP [1]; [5]): −30.00% | Average Duration of Weekly RP Attacks (All Attacks), Change from Baseline, Mean (participants with SSc-RP [1]; [6]): 0.00 min | Average Duration of Weekly RP Attacks (All Attacks), Change from Baseline, Median (participants with SSc-RP [1]; [6]): 2.16 min | Average Duration of Weekly RP Attacks (All Attacks), Mean (participants with SSc-RP [1]; [6]): 15.91 min | Average Duration of Weekly RP Attacks (All Attacks), Median (participants with SSc-RP [1]; [6]): 14.27 min | Average Duration of Weekly RP Attacks (All Attacks), Percent Change from Baseline, Mean (participants with SSc-RP [1]; [6]): −10.70% | Average Duration of Weekly RP Attacks (All Attacks), Percent Change from Baseline, Median (participants with SSc-RP [1]; [6]): 17.86% | Change from Baseline in average duration of weekly symptomatic RP attacks, Mean (participants with SSc-RP [1]; [7]): -27.00 min | Change from Baseline in average duration of weekly symptomatic RP attacks, Median (participants with SSc-RP [1]; [7]): -27.00 min | Percent Change from Baseline in average duration of weekly symptomatic RP attacks, Mean (participants with SSc-RP [1]; [7]): −30.00% | Percent Change from Baseline in average duration of weekly symptomatic RP attacks, Median (participants with SSc-RP [1]; [7]): −30.00% | Average Duration of Weekly RP Attacks (All Attacks), Change from Baseline, Mean (participants with SSc-RP [1]; [8]): -19.09 min | Average Duration of Weekly RP Attacks (All Attacks), Change from Baseline, Median (participants with SSc-RP [1]; [8]): -19.09 min | Average Duration of Weekly RP Attacks (All Attacks), Mean (participants with SSc-RP [1]; [8]): 62.73 min | Average Duration of Weekly RP Attacks (All Attacks), Median (participants with SSc-RP [1]; [8]): 62.73 min | Average Duration of Weekly RP Attacks (All Attacks), Percent Change from Baseline, Mean (participants with SSc-RP [1]; [8]): −23.33% | Average Duration of Weekly RP Attacks (All Attacks), Percent Change from Baseline, Median (participants with SSc-RP [1]; [8]): −23.33% | Average Duration of weekly symptomatic RP attacks, Mean (participants with SSc-RP [1]; [9]): 27.98 min | Average Duration of weekly symptomatic RP attacks, Median (participants with SSc-RP [1]; [9]): 22.96 min | Duration (change) (participants with SSc-RP [1]; Pooled Cilnidipine (n = 7)): 20% | Average Duration of weekly symptomatic RP attacks, Mean (participants with SSc-RP [1]; [10]): 21.70 min | Average Duration of weekly symptomatic RP attacks, Median (participants with SSc-RP [1]; [10]): 30.45 min | Percent Change from Baseline in average duration of weekly symptomatic RP attacks, Median (participants with SSc-RP [1]; [10]): −34.60% | Average Duration of weekly symptomatic RP attacks, Mean (participants with SSc-RP [1]; [11]): 21.70 min | Average Duration of weekly symptomatic RP attacks, Median (participants with SSc-RP [1]; [11]): 30.45 min | Change from Baseline in average duration of weekly symptomatic RP attacks, Mean (participants with SSc-RP [1]; [11]): -7.67 min | Change from Baseline in average duration of weekly symptomatic RP attacks, Median (participants with SSc-RP [1]; [11]): -10.33 min | Percent Change from Baseline in average duration of weekly symptomatic RP attacks, Mean (participants with SSc-RP [1]; [11]): −32.23% | Percent Change from Baseline in average duration of weekly symptomatic RP attacks, Median (participants with SSc-RP [1]; [11]): −34.60% | Average Duration of Weekly Symptomatic RP Attacks Change from Baseline, Mean (participants with SSc-RP [1]; Pooled Cilnidipine, ITT Part A): -7.67 min | Average Duration of Weekly Symptomatic RP Attacks Change from Baseline, Median (participants with SSc-RP [1]; Pooled Cilnidipine, ITT Part A): -10.33 min | Average Duration of Weekly Symptomatic RP Attacks Percent Change from Baseline, Mean (participants with SSc-RP [1]; Pooled Cilnidipine, ITT Part A): −32.23% | Average Duration of Weekly Symptomatic RP Attacks Percent Change from Baseline, Median (participants with SSc-RP [1]; Pooled Cilnidipine, ITT Part A): −34.60% | Average Duration of Weekly RP Attacks (All Attacks), Change from Baseline, Mean (participants with SSc-RP [1]; [12]): -3.55 min | Average Duration of Weekly RP Attacks (All Attacks), Change from Baseline, Median (participants with SSc-RP [1]; [12]): -7.63 min | Average Duration of Weekly RP Attacks (All Attacks), Percent Change from Baseline, Mean (participants with SSc-RP [1]; [12]): −23.71% | Average Duration of Weekly RP Attacks (All Attacks), Percent Change from Baseline, Median (participants with SSc-RP [1]; [12]): −21.20% | Average Duration of Weekly RP Attacks (All Attacks), Mean (participants with SSc-RP [1]; [13]): 21.66 min | Average Duration of Weekly RP Attacks (All Attacks), Median (participants with SSc-RP [1]; [13]): 30.45 min | Average Duration of weekly symptomatic RP attacks, Mean (participants with SSc-RP [1]; [14]): 21.70 min | Average Duration of weekly symptomatic RP attacks, Median (participants with SSc-RP [1]; [14]): 30.45 min | Change from Baseline in average duration of weekly symptomatic RP attacks, Mean (participants with SSc-RP [1]; [14]): -7.67 min | Change from Baseline in average duration of weekly symptomatic RP attacks, Median (participants with SSc-RP [1]; [14]): -10.33 min | Percent Change from Baseline in average duration of weekly symptomatic RP attacks, Mean (participants with SSc-RP [1]; [14]): −32.23% | Percent Change from Baseline in average duration of weekly symptomatic RP attacks, Median (participants with SSc-RP [1]; [14]): −34.60% | Average Duration of Weekly RP Attacks (All Attacks), Mean (participants with SSc-RP [1]; [15]): 21.66 min | Average Duration of Weekly RP Attacks (All Attacks), Median (participants with SSc-RP [1]; [15]): 30.45 min | Average duration of weekly RP attacks, Change from Baseline, Median (participants with SSc-RP [1]; [16]): -7.63 min | Average duration of weekly RP attacks, Percent Change from Baseline, Mean (participants with SSc-RP [1]; [16]): −23.71% | tolerability (participants with SSc-RP [2]; 10 mg and 20 mg, alone or in combination with tadalafil): well tolerated | Safety: number of AE (participants with SSc-RP [2]; Cilnidipine 20 mg, HA, mild, n = 8): 1AE (HA−mild; 1 | Safety: withdrawals (participants with SSc-RP [2]; Cilnidipine 20 mg, n = 8): 1AE (HA−mild; 1 withdrawal | Safety: withdrawals (participants with SSc-RP [2]; Pooled Cilnidipine, n = 9): T); no withdrawals | treatment discontinuations due to intolerance (participants with SSc-RP [2]; all patients who received any dose of cilnidipine (n=17)): no treatment discontinuations due to intolerance were reported | incidence of Adverse Events / overall adverse event rate (participants with SSc-RP [2]; all patients who received any dose of cilnidipine (n=17), Part A): 17% | Adverse effects (participants with SSc-RP [2]; any Profervia dose): 17% Adverse effects in | severity grade of adverse events (participants with SSc-RP [2]; patients treated with cilnidipine, Part A): only Grade 1 Adverse Events (AEs) were reported; also recorded: only mild (Grade 1) adverse events occurred | Safety: grade of Adverse Events (AEs) (participants with SSc-RP [2]; summary of data): Grade 1 Adverse | Safety: treatment D/Cs (discontinuations) (participants with SSc-RP [2]; summary of data): No treatment D/Cs
